{
  "source": "patent US7652014B2",
  "about": "“Substituted 6-cyclohexylalkyl substituted 2-quinolinones and 2-quinoxalinones as poly(ADP-ribose) polymerase inhibitors” (Janssen Pharmaceutica, priority 2003, dated 2010)",
  "origin": "cited, not measured here",
  "key": {"colitis": {"tested_on": "colitis", "conditions": "rats, trinitrobenzene sulfonic acid induced colitis, distal colon; cited from earlier work"}, "[1]": {"tested_on": "infarct size caused by ischemia and reperfusion of the heart", "conditions": "rabbits, cited from earlier work"}},
  "data": [
    {"smiles": "NC(=O)c1cccc(N)c1", "note": "[3-amino-benzamide]", "values": [
      {"measurement": "effect on inflammatory response in colitis", "setting": "colitis", "value": "reduced the inflammatory response"},
      {"measurement": "reduction in infarct size in the heart", "setting": "[1]; single injection 10 mg/kg, one minute before occlusion or one minute before reperfusion", "value": "32-42%"}
    ]},
    {"smiles": "Oc1cccc2c(O)nccc12", "note": "[1,5-dihydroxyisoquinoline]", "values": [
      {"measurement": "reduction in infarct size", "setting": "[1]; single injection 1 mg/kg", "value": "38-48%"}
    ]}
  ]
}
